Assay results as given in the supplement of paper PMC4862054.

system: CAL-85-1; assay: normalised response (% of control), CellTiter-Glo; higher = more viable cells (100 = DMSO, 0 = benzethonium chloride kill control); conditions: incubation time: 72 h
Summary of the method: (§1)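 Each value is the plate-normalised signal at one concentration of the series. Breast cancer cell lines (20 µl suspension) were incubated 72 h in 384-well plates with compound at 5 concentrations in 10-fold steps over a compound-specific 10,000-fold range. CellTox Green and then CellTiter-Glo were read, and each plate was scaled to 0.1 % DMSO (100) and a positive kill control (0).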

Row | SMILES | normalised response [%]
1 | O=C(Cc1ccc(-c2ccc(OCCN3CCOCC3)cc2)cn1)NCc1ccccc1 [KX2-391] (1000 nM) | 45.3
2 | C=CCc1cccc(/C=N/NC(=O)CN2CCN(Cc3ccccc3)CC2)c1O [PAC-1] (1000 nM) | 98.5
3 | Oc1ncc(N(CCCl)CCCl)c(O)n1 [Uracil mustard] (1000 nM) | 99.3
4 | O=C(O)C(=O)O.[NH-][C@@H]1CCCC[C@H]1[NH-].[Pt+2] [Oxaliplatin] (1000 nM) | 95.9
5 | Nc1nc2[nH]cc(CCc3ccc(C(=O)N[C@@H](CCC(=O)O)C(=O)O)cc3)c2c(=O)[nH]1 [Pemetrexed] (1000 nM) | 54.5
6 | O=C(O)C1(C(=O)O)CCC1.[NH2-].[NH2-].[Pt+2] [Carboplatin] (1000 nM) | 95.7
7 | CC[C@H](C)C(=O)O[C@H]1C[C@H](O)C=C2C=C[C@H](C)[C@H](CC[C@@H](O)C[C@@H](O)CC(=O)O)[C@H]21 [Pravastatin] (1000 nM) | 95.5
8 | Cc1cnc(NC(=O)Nc2cc(Br)c(C)cc2OC[C@@H]2CNCCO2)cn1 [Rabusertib] (100 nM) | 99
9 | COc1cc2nccc(Oc3ccc(NC(=O)Nc4cc(C)on4)c(Cl)c3)c2cc1OC [Tivozanib] (1000 nM) | 103

system: MFM-223; assay: as above; conditions: incubation time: 72 h
Summary of the method: as §1

Row | SMILES | normalised response [%]
10 | O=C(Cc1ccc(-c2ccc(OCCN3CCOCC3)cc2)cn1)NCc1ccccc1 [KX2-391] (1000 nM) | 44.9
11 | C=CCc1cccc(/C=N/NC(=O)CN2CCN(Cc3ccccc3)CC2)c1O [PAC-1] (1000 nM) | 100
12 | Oc1ncc(N(CCCl)CCCl)c(O)n1 [Uracil mustard] (1000 nM) | 98.2
13 | O=C(O)C(=O)O.[NH-][C@@H]1CCCC[C@H]1[NH-].[Pt+2] [Oxaliplatin] (1000 nM) | 92.3
14 | Nc1nc2[nH]cc(CCc3ccc(C(=O)N[C@@H](CCC(=O)O)C(=O)O)cc3)c2c(=O)[nH]1 [Pemetrexed] (1000 nM) | 91.5
15 | O=C(O)C1(C(=O)O)CCC1.[NH2-].[NH2-].[Pt+2] [Carboplatin] (1000 nM) | 101
16 | CC[C@H](C)C(=O)O[C@H]1C[C@H](O)C=C2C=C[C@H](C)[C@H](CC[C@@H](O)C[C@@H](O)CC(=O)O)[C@H]21 [Pravastatin] (1000 nM) | 85.5
17 | Cc1cnc(NC(=O)Nc2cc(Br)c(C)cc2OC[C@@H]2CNCCO2)cn1 [Rabusertib] (100 nM) | 100
18 | COc1cc2nccc(Oc3ccc(NC(=O)Nc4cc(C)on4)c(Cl)c3)c2cc1OC [Tivozanib] (1000 nM) | 60.3

system: SK-BR-3; assay: as above; conditions: incubation time: 72 h
Summary of the method: as §1

Row | SMILES | normalised response [%]
19 | O=C(Cc1ccc(-c2ccc(OCCN3CCOCC3)cc2)cn1)NCc1ccccc1 [KX2-391] (1000 nM) | 14.9
20 | C=CCc1cccc(/C=N/NC(=O)CN2CCN(Cc3ccccc3)CC2)c1O [PAC-1] (1000 nM) | 109
21 | Oc1ncc(N(CCCl)CCCl)c(O)n1 [Uracil mustard] (1000 nM) | 100
22 | O=C(O)C(=O)O.[NH-][C@@H]1CCCC[C@H]1[NH-].[Pt+2] [Oxaliplatin] (1000 nM) | 92.8
23 | Nc1nc2[nH]cc(CCc3ccc(C(=O)N[C@@H](CCC(=O)O)C(=O)O)cc3)c2c(=O)[nH]1 [Pemetrexed] (1000 nM) | 68.2
24 | O=C(O)C1(C(=O)O)CCC1.[NH2-].[NH2-].[Pt+2] [Carboplatin] (1000 nM) | 103
25 | CC[C@H](C)C(=O)O[C@H]1C[C@H](O)C=C2C=C[C@H](C)[C@H](CC[C@@H](O)C[C@@H](O)CC(=O)O)[C@H]21 [Pravastatin] (1000 nM) | 86.2
26 | Cc1cnc(NC(=O)Nc2cc(Br)c(C)cc2OC[C@@H]2CNCCO2)cn1 [Rabusertib] (100 nM) | 109
27 | COc1cc2nccc(Oc3ccc(NC(=O)Nc4cc(C)on4)c(Cl)c3)c2cc1OC [Tivozanib] (1000 nM) | 88.5

system: MCF-10A; assay: as above; conditions: incubation time: 72 h
Summary of the method: as §1

Row | SMILES | normalised response [%]
28 | O=C(Cc1ccc(-c2ccc(OCCN3CCOCC3)cc2)cn1)NCc1ccccc1 [KX2-391] (1000 nM) | 75.2
29 | C=CCc1cccc(/C=N/NC(=O)CN2CCN(Cc3ccccc3)CC2)c1O [PAC-1] (1000 nM) | 116
30 | Oc1ncc(N(CCCl)CCCl)c(O)n1 [Uracil mustard] (1000 nM) | 118
31 | O=C(O)C(=O)O.[NH-][C@@H]1CCCC[C@H]1[NH-].[Pt+2] [Oxaliplatin] (1000 nM) | 96.5
32 | Nc1nc2[nH]cc(CCc3ccc(C(=O)N[C@@H](CCC(=O)O)C(=O)O)cc3)c2c(=O)[nH]1 [Pemetrexed] (1000 nM) | 97.6
33 | O=C(O)C1(C(=O)O)CCC1.[NH2-].[NH2-].[Pt+2] [Carboplatin] (1000 nM) | 105
34 | CC[C@H](C)C(=O)O[C@H]1C[C@H](O)C=C2C=C[C@H](C)[C@H](CC[C@@H](O)C[C@@H](O)CC(=O)O)[C@H]21 [Pravastatin] (1000 nM) | 96.1
35 | Cc1cnc(NC(=O)Nc2cc(Br)c(C)cc2OC[C@@H]2CNCCO2)cn1 [Rabusertib] (100 nM) | 112
36 | COc1cc2nccc(Oc3ccc(NC(=O)Nc4cc(C)on4)c(Cl)c3)c2cc1OC [Tivozanib] (1000 nM) | 99.2

system: HCC1143; assay: as above; conditions: incubation time: 72 h
Summary of the method: as §1

Row | SMILES | normalised response [%]
37 | O=C(Cc1ccc(-c2ccc(OCCN3CCOCC3)cc2)cn1)NCc1ccccc1 [KX2-391] (1000 nM) | 61.5
38 | C=CCc1cccc(/C=N/NC(=O)CN2CCN(Cc3ccccc3)CC2)c1O [PAC-1] (1000 nM) | 103
39 | Oc1ncc(N(CCCl)CCCl)c(O)n1 [Uracil mustard] (1000 nM) | 101
40 | O=C(O)C(=O)O.[NH-][C@@H]1CCCC[C@H]1[NH-].[Pt+2] [Oxaliplatin] (1000 nM) | 95.5
41 | Nc1nc2[nH]cc(CCc3ccc(C(=O)N[C@@H](CCC(=O)O)C(=O)O)cc3)c2c(=O)[nH]1 [Pemetrexed] (1000 nM) | 93.3
42 | O=C(O)C1(C(=O)O)CCC1.[NH2-].[NH2-].[Pt+2] [Carboplatin] (1000 nM) | 101
43 | CC[C@H](C)C(=O)O[C@H]1C[C@H](O)C=C2C=C[C@H](C)[C@H](CC[C@@H](O)C[C@@H](O)CC(=O)O)[C@H]21 [Pravastatin] (1000 nM) | 94.3
44 | Cc1cnc(NC(=O)Nc2cc(Br)c(C)cc2OC[C@@H]2CNCCO2)cn1 [Rabusertib] (100 nM) | 106
45 | COc1cc2nccc(Oc3ccc(NC(=O)Nc4cc(C)on4)c(Cl)c3)c2cc1OC [Tivozanib] (1000 nM) | 95.9

system: MDA-MB-468; assay: as above; conditions: incubation time: 72 h
Summary of the method: as §1

Row | SMILES | normalised response [%]
46 | O=C(Cc1ccc(-c2ccc(OCCN3CCOCC3)cc2)cn1)NCc1ccccc1 [KX2-391] (1000 nM) | 33.4
47 | C=CCc1cccc(/C=N/NC(=O)CN2CCN(Cc3ccccc3)CC2)c1O [PAC-1] (1000 nM) | 101
48 | Oc1ncc(N(CCCl)CCCl)c(O)n1 [Uracil mustard] (1000 nM) | 104
49 | O=C(O)C(=O)O.[NH-][C@@H]1CCCC[C@H]1[NH-].[Pt+2] [Oxaliplatin] (1000 nM) | 91.1
50 | Nc1nc2[nH]cc(CCc3ccc(C(=O)N[C@@H](CCC(=O)O)C(=O)O)cc3)c2c(=O)[nH]1 [Pemetrexed] (1000 nM) | 90
51 | O=C(O)C1(C(=O)O)CCC1.[NH2-].[NH2-].[Pt+2] [Carboplatin] (1000 nM) | 100
52 | CC[C@H](C)C(=O)O[C@H]1C[C@H](O)C=C2C=C[C@H](C)[C@H](CC[C@@H](O)C[C@@H](O)CC(=O)O)[C@H]21 [Pravastatin] (1000 nM) | 89.9
53 | Cc1cnc(NC(=O)Nc2cc(Br)c(C)cc2OC[C@@H]2CNCCO2)cn1 [Rabusertib] (100 nM) | 101
54 | COc1cc2nccc(Oc3ccc(NC(=O)Nc4cc(C)on4)c(Cl)c3)c2cc1OC [Tivozanib] (1000 nM) | 89.5

system: MDA-MB-436; assay: as above; conditions: incubation time: 72 h
Summary of the method: as §1

Row | SMILES | normalised response [%]
55 | O=C(Cc1ccc(-c2ccc(OCCN3CCOCC3)cc2)cn1)NCc1ccccc1 [KX2-391] (1000 nM) | 25.2
56 | C=CCc1cccc(/C=N/NC(=O)CN2CCN(Cc3ccccc3)CC2)c1O [PAC-1] (1000 nM) | 86
57 | Oc1ncc(N(CCCl)CCCl)c(O)n1 [Uracil mustard] (1000 nM) | 106
58 | O=C(O)C(=O)O.[NH-][C@@H]1CCCC[C@H]1[NH-].[Pt+2] [Oxaliplatin] (1000 nM) | 106
59 | Nc1nc2[nH]cc(CCc3ccc(C(=O)N[C@@H](CCC(=O)O)C(=O)O)cc3)c2c(=O)[nH]1 [Pemetrexed] (1000 nM) | 80.7
60 | O=C(O)C1(C(=O)O)CCC1.[NH2-].[NH2-].[Pt+2] [Carboplatin] (1000 nM) | 98.3
61 | CC[C@H](C)C(=O)O[C@H]1C[C@H](O)C=C2C=C[C@H](C)[C@H](CC[C@@H](O)C[C@@H](O)CC(=O)O)[C@H]21 [Pravastatin] (1000 nM) | 18.9
62 | Cc1cnc(NC(=O)Nc2cc(Br)c(C)cc2OC[C@@H]2CNCCO2)cn1 [Rabusertib] (100 nM) | 113
63 | COc1cc2nccc(Oc3ccc(NC(=O)Nc4cc(C)on4)c(Cl)c3)c2cc1OC [Tivozanib] (1000 nM) | 101

system: CAL-120; assay: as above; conditions: incubation time: 72 h
Summary of the method: as §1

Row | SMILES | normalised response [%]
64 | O=C(Cc1ccc(-c2ccc(OCCN3CCOCC3)cc2)cn1)NCc1ccccc1 [KX2-391] (1000 nM) | 59.4
65 | C=CCc1cccc(/C=N/NC(=O)CN2CCN(Cc3ccccc3)CC2)c1O [PAC-1] (1000 nM) | 97.5
66 | Oc1ncc(N(CCCl)CCCl)c(O)n1 [Uracil mustard] (1000 nM) | 106
67 | O=C(O)C(=O)O.[NH-][C@@H]1CCCC[C@H]1[NH-].[Pt+2] [Oxaliplatin] (1000 nM) | 96.9
68 | Nc1nc2[nH]cc(CCc3ccc(C(=O)N[C@@H](CCC(=O)O)C(=O)O)cc3)c2c(=O)[nH]1 [Pemetrexed] (1000 nM) | 88.1
69 | O=C(O)C1(C(=O)O)CCC1.[NH2-].[NH2-].[Pt+2] [Carboplatin] (1000 nM) | 95.3
70 | CC[C@H](C)C(=O)O[C@H]1C[C@H](O)C=C2C=C[C@H](C)[C@H](CC[C@@H](O)C[C@@H](O)CC(=O)O)[C@H]21 [Pravastatin] (1000 nM) | 95.3
71 | Cc1cnc(NC(=O)Nc2cc(Br)c(C)cc2OC[C@@H]2CNCCO2)cn1 [Rabusertib] (100 nM) | 98.1
72 | COc1cc2nccc(Oc3ccc(NC(=O)Nc4cc(C)on4)c(Cl)c3)c2cc1OC [Tivozanib] (1000 nM) | 93.1

system: HCC1937; assay: as above; conditions: incubation time: 72 h
Summary of the method: as §1

Row | SMILES | normalised response [%]
73 | O=C(Cc1ccc(-c2ccc(OCCN3CCOCC3)cc2)cn1)NCc1ccccc1 [KX2-391] (1000 nM) | 72.8
74 | C=CCc1cccc(/C=N/NC(=O)CN2CCN(Cc3ccccc3)CC2)c1O [PAC-1] (1000 nM) | 92.7
75 | Oc1ncc(N(CCCl)CCCl)c(O)n1 [Uracil mustard] (1000 nM) | 93.8
76 | O=C(O)C(=O)O.[NH-][C@@H]1CCCC[C@H]1[NH-].[Pt+2] [Oxaliplatin] (1000 nM) | 99.5
77 | Nc1nc2[nH]cc(CCc3ccc(C(=O)N[C@@H](CCC(=O)O)C(=O)O)cc3)c2c(=O)[nH]1 [Pemetrexed] (1000 nM) | 70.3
78 | O=C(O)C1(C(=O)O)CCC1.[NH2-].[NH2-].[Pt+2] [Carboplatin] (1000 nM) | 95
79 | CC[C@H](C)C(=O)O[C@H]1C[C@H](O)C=C2C=C[C@H](C)[C@H](CC[C@@H](O)C[C@@H](O)CC(=O)O)[C@H]21 [Pravastatin] (1000 nM) | 86.9
80 | Cc1cnc(NC(=O)Nc2cc(Br)c(C)cc2OC[C@@H]2CNCCO2)cn1 [Rabusertib] (100 nM) | 92.4
81 | COc1cc2nccc(Oc3ccc(NC(=O)Nc4cc(C)on4)c(Cl)c3)c2cc1OC [Tivozanib] (1000 nM) | 95.2

system: BT-474; assay: as above; conditions: incubation time: 72 h
Summary of the method: as §1

Row | SMILES | normalised response [%]
82 | O=C(Cc1ccc(-c2ccc(OCCN3CCOCC3)cc2)cn1)NCc1ccccc1 [KX2-391] (1000 nM) | 52.5
